Data as given in patent publication US8183252B2, “Heterocyclic aspartyl protease inhibitors” (Schering Corporation, priority 2007, dated 2012).

These compounds were tested against T1, human BACE1 (sproBACE1) (Homo sapiens, UniProt P56817) (assay: BACE-1 Peptide Hydrolysis Assay (HTRF)). Conditions: not given.
T1 construct: sBACE1, corresponding to amino acids 1-454; made in house; host or cells: Sf9 insect cells (baculovirus), secreted into the medium
Format: biochemical
Outline: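 Secreted sBACE1-myc/His from baculovirus-infected sf9 cells, purified on Q-sepharose then Ni-NTA. Substrate-initiated reactions ran 3 hr at 30° C., then were stopped with KF buffer (pH 8.0) containing SA-XL665 for HTRF read-out. EC50 was fitted by sigmoidal dose-response to percent change in ratio.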

T1 sequence (P56817 22-454): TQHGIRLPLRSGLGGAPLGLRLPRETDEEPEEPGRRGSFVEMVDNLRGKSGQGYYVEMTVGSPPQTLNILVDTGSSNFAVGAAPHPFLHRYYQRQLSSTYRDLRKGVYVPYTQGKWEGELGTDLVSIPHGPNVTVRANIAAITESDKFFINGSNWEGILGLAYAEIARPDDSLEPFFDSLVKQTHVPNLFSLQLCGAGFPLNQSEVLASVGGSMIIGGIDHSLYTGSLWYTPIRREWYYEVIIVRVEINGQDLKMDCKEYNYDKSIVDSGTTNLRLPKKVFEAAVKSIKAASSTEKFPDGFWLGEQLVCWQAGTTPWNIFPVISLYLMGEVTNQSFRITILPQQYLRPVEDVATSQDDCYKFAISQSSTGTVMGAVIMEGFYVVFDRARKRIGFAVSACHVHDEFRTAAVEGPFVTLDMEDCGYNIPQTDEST

SMILES | Ki
COc1ccc(C=O)c(-c2cccc(C3(C)NC(=N)N(CC4CCN(C(C)=O)CC4)C3=O)c2)c1 (stereo not drawn) | < 5 µM
COc1ccc(CNc2ccccc2)c(-c2cccc(C3(C)NC(=N)N(CC4CCN(C(C)=O)CC4)C3=O)c2)c1 (stereo not drawn) | < 5 µM

Same assay, conditions: read-out: BACE-1 Ki

SMILES | Ki
CN1C(=N)NC(C)(c2ccc(C#N)s2)C(c2ccc(Cl)c(Cl)c2)C1=O (stereo not drawn) | < 5 µM
CS(=O)(=O)N1CCC(CN2C(=N)NC(c3ccccc3)(c3ccccc3)C2=O)CC1 [piperidine, 4-[(2-imino-5-oxo-4,4-diphenyl-1-imidazolidinyl)methyl]-1-(methylsulfonyl)-] | < 5 µM
COc1ccc(Cl)c(-c2cc([C@]3(C)CC(=O)N(C)C(=N)N3)cc3ccsc23)c1 | < 5 µM
CN1C(=N)N[C@](C)(c2cc(-c3cc(C#N)cc(C#N)c3)cs2)CC1=O | < 5 µM
CN1C(=N)N[C@](C)(c2scc(C#N)c2F)CC1=O | < 5 µM
CN1C(=N)NC(C)(c2cc(-c3cccc(C#N)c3)cs2)C(CCCc2ccccc2)C1=O (stereo not drawn) | < 5 µM
CSc1cccc(-c2csc([C@]3(C)CC(=O)N(C)C(=N)N3)c2)c1 | < 5 µM
Cc1cc([C@]2(C)CC(=O)N(C)C(=N)N2)sc1-c1cccc(C#N)c1 | < 5 µM
CN1C(=N)NC(C)(c2cc(-c3cccc(C#N)c3)cs2)C(CC#N)C1=O (mixture of isomers) | < 5 µM
N=C1NC(c2ccccc2)(c2ccccc2)C(=O)N1Cc1cccc(C(=O)N2CCOCC2)c1 | < 5 µM
CN1C(=N)N[C@](C)(c2cc(-c3cc(F)cc(C#N)c3)nn2C)CC1=O | < 5 µM
CN1C(=N)NC(C)(c2cccc(-c3cc(Cl)ccc3CNC(=O)Nc3ccc(Cl)cc3)c2)C1=O (stereo not drawn) [urea, N-[[5-chloro-3′-(2-imino-1,4-dimethyl-5-oxo-4-imidazolidinyl)[1,1′-biphenyl]-2-yl]methyl]-N′-(4-chlorophenyl)-] | < 5 µM
COCC1CCCN1C(=O)c1cccc(CN2C(=N)NC(C)(c3cccc(-c4cccc(Cl)c4)c3)C2=O)c1 (stereo not drawn) | < 5 µM
CN1C(=N)NC(C)(c2cc(-c3cccc(C#N)c3)cs2)C(CC=Cc2ccc(F)cc2)C1=O (stereo not drawn) | < 5 µM
CN1OCC(C)(c2cc(-c3cccc(C#N)c3)cs2)NC1=N (stereo not drawn) | < 5 µM
CN1C(=N)N[C@](C)(c2cnn(-c3cccc(I)c3)c2)CC1=O | < 5 µM
COc1cccc(-c2sc([C@]3(C)CC(=O)N(C)C(=N)N3)cc2C)c1 | < 5 µM
CN1C(=N)NC(c2ccccc2)(c2cc(-c3ccc4c(c3)OCO4)cs2)C1=O (stereo not drawn) | < 5 µM
CN1C(=N)N[C@](C)(c2cc(-c3cccc(C#N)c3)nn2C)CC1=O | < 5 µM
CN1C(=N)NC(C)(c2cccc(-c3cc(Cl)ccc3CNC(=O)c3ccnnc3)c2)C1=O (stereo not drawn) | < 5 µM
CN1C(=N)N[C@](C)(c2csc3c(-c4ccccc4)cccc23)CC1=O | < 5 µM
CC1(c2cccc(-c3cccc(Cl)c3)c2)NC(=N)N(CC2CCN(S(C)(=O)=O)C2)C1=O (stereo not drawn) | < 5 µM
CN1C(=N)N[C@](C)(c2cc(-c3cncnc3)cs2)CC1=O | < 5 µM

Other lines, results leading:

Ki | SMILES
< 5 µM | CN1C(=N)NC(c2csc(-c3cccc(C#N)c3)c2)(C2CC2)C1=O (stereo not drawn)
< 5 µM | N=C1NC(c2ccccc2)(c2ccccc2)C(=O)N1Cc1cccc(NC(=O)C2CCCCC2)c1
< 5 µM | CC(=O)N1CCC(CN2C(=N)N[C@@](c3cccc(-c4cncc(Br)c4)c3)(C3CC3)C2=O)CC1
< 5 µM | CN1C(=N)N[C@](C)(c2cc(-c3cccc(Br)c3)nn2C)C(C)(C)C1=O
< 5 µM | CN1C(=N)N[C@](C)(c2ncc(-c3cccc(Br)c3)s2)CC1=O
< 5 µM | CN1C(=N)N[C@](C)(c2ccc3c(Br)n[nH]c3c2)CC1=O
< 5 µM | CN1C(=N)N[C@](CCC2CCCCC2)(C[C@H]2CCC[C@@H](NC(=O)c3ccccn3)C2)C1=O
< 5 µM | COc1cc(-c2cccc([C@@]3(C4CC4)NC(=N)N(C)C3=O)c2)ccc1O
< 5 µM | CN1C(=N)N[C@](CCc2ccccc2)(C[C@H]2CCC[C@@H](NC(=O)c3cccnc3)C2)C1=O
< 5 µM | CN1C(=N)N[C@](CCC2CCCCC2)(C[C@H]2CCC[C@@H](N(C)C)C2)C1=O
< 5 µM | CSc1cccc(-c2cccc([C@@]3(C4CC4)NC(=N)N(C)C3=O)c2)c1
